# Experimental data from ChEMBL document CHEMBL6078669, “Stereoisomers of cannabidiols and their pharmacological activities - A potentially novel direction for cannabinoids” (Bioorg Med Chem, 2025).
# Experiments:
# Cannabinoid receptor 1 [1] = biological target: T1, Cannabinoid receptor 1 (Rattus norvegicus, UniProt P20272); test: Displacement of [3H]HU-243 from Sabra rat brain synaptosome CB1 receptor assessed as inhibition constant incubated for 90 mins; assay type: subcellular
# Cannabinoid receptor 2 [2] = biological target: T2, Cannabinoid receptor 2 (Homo sapiens, UniProt P34972); test: Displacement of [3H]HU-243 from CB2 receptor (unknown origin) extracted from green monkey COS-7 cell membrane assessed as inhibition constant incubated for 90 mins; assay type: cell membranes
# Cannabinoid receptor 1 [3] = biological target: T3, Cannabinoid receptor 1 (Homo sapiens, UniProt P21554); test: Binding affinity to CB1 receptor (unknown origin) assessed as inhibition constant
# Cannabinoid receptor 2 [4] = biological target: T2, Cannabinoid receptor 2; test: Binding affinity to CB2 receptor (unknown origin) assessed as inhibition constant
# [5] = Selectivity ratio of Ki for CB1 receptor (unknown origin) to Ki for CB2 receptor (unknown origin)
# [6] = Selectivity index, ratio of Ki for Sabra rat brain synaptosome CB1 receptor to Ki for CB2 receptor (unknown origin) extracted from green monkey COS-7 cells
# Cannabinoid receptor 1 [7] = biological target: T3, Cannabinoid receptor 1; test: Displacement of [3H]CP-55,940 from human CB1 receptor extracted from HEK293 cell membrane assessed as inhibition constant incubated for 90 mins by liquid scintillation spectrophotometric analysis; assay type: cell membranes
# Cannabinoid receptor 2 [8] = biological target: T2, Cannabinoid receptor 2; test: Displacement of [3H]CP-55,940 from human CB2 receptor extracted from HEK293 cell membrane assessed as inhibition constant incubated for 90 mins by liquid scintillation spectrophotometric analysis; assay type: cell membranes
# Homo sapiens = organism: Homo sapiens; test: Selectivity ratio of Ki for human CB1 receptor extracted from HEK293 cell membrane to Ki for human CB2 receptor extracted from HEK293 cell membrane
# [9] = biological target: Transient receptor potential cation channel subfamily V member 1 (Homo sapiens, UniProt Q8NER1); test: Agonist activity at human TRPV1 receptor expressed in HEK293 cells assessed as effect on [Ca2+]i preincubated with capsazepine for 30 mins followed by compound addition by Fluo-3 probe based fluorescence analysis; assay type: cell-based
# [10] = Inhibition of [14C]-arachidonoylethanolamide uptake in rat RBL-2H3 cells assessed as increase in AEA level incubated for 5 mins by scintillation counting; assay type: functional, cell-based; settings: RBL-2H3, 5 min
# [11] = biological target: T4, Fatty-acid amide hydrolase 1 (Mus musculus, UniProt O08914); test: Inhibition of FAAH-mediated [14C]-AEA hydrolysis in mouse N18TG2 cell membrane incubated for 30 mins by scintillation counting; assay type: cell membranes
# T4 sequence (O08914 whole entry): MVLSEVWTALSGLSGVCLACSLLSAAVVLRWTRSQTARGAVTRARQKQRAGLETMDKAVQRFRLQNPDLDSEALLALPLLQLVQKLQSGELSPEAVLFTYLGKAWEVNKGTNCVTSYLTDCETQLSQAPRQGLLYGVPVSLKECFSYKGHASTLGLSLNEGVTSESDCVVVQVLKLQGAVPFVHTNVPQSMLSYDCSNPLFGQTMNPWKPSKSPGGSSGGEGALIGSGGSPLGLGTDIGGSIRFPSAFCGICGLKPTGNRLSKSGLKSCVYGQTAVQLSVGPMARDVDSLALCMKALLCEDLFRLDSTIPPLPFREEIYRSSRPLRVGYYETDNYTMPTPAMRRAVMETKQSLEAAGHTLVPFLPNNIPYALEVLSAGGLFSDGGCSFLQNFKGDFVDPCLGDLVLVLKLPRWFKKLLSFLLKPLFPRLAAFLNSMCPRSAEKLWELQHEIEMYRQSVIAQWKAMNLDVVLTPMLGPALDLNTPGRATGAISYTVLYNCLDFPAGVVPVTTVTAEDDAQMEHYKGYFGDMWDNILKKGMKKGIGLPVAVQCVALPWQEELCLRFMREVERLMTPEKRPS
# Cannabinoid receptor 1 [12] = biological target: T3, Cannabinoid receptor 1; test: Antagonist activity at human CB1 receptor expressed in HEK293T cells co-transfected with pCRE-Luc plasmid preincubated with compound for 30 mins followed by WIN55,212 addition and measured after 6 hrs by Dual-luciferase assay; assay type: functional, cell-based
# Cannabinoid receptor 2 [13] = biological target: T2, Cannabinoid receptor 2; test: Agonist activity at human CB2 receptor expressed in HEK293T cells co-transfected with pCRE-Luc plasmid preincubated with compound for 30 mins followed by forskolin addition and measured after 6 hrs by Dual-luciferase assay; assay type: functional, cell-based
# Cannabinoid receptor 1 [14] = biological target: T1, Cannabinoid receptor 1; test: Displacement of [3H]HU-243 from Sabra rat brain synaptosome CB1 receptor assessed as inhibition constant; assay type: subcellular
# T2 sequence (P34972 whole entry): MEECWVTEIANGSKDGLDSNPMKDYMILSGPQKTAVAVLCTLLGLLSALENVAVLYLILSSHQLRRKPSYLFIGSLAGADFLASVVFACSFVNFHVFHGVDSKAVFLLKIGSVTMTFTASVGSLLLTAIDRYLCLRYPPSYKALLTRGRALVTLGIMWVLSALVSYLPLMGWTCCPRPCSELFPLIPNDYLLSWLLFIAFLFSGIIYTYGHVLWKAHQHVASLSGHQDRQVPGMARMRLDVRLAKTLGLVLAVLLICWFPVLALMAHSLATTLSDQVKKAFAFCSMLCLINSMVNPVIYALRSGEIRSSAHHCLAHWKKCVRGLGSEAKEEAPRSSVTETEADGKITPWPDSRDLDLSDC
# T3 sequence (P21554 whole entry): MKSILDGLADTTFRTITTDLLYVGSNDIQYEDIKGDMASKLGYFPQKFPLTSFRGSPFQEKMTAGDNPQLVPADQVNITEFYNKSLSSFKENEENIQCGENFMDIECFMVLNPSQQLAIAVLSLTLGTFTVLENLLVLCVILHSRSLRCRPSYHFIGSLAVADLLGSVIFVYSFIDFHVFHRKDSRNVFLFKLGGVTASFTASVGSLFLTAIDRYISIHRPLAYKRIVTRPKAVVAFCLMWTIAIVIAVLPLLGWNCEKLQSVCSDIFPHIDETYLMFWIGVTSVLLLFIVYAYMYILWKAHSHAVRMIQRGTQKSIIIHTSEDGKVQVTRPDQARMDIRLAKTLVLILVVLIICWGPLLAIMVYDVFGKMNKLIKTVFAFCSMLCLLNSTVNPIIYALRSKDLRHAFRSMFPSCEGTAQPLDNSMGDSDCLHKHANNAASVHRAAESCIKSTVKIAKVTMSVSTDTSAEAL
# T1 sequence (P20272 whole entry): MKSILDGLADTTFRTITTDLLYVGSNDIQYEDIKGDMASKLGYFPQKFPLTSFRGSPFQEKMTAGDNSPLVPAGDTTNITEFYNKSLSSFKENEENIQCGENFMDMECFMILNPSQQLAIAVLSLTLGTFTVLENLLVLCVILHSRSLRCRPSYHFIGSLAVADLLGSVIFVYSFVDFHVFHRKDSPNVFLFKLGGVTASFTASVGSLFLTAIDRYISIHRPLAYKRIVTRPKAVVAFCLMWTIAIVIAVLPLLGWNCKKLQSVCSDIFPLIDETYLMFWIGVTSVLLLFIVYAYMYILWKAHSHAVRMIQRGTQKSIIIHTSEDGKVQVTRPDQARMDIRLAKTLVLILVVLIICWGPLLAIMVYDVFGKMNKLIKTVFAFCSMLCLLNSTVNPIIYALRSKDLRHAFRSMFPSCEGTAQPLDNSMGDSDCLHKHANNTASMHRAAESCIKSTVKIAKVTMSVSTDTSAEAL
# Transient receptor potential cation channel subfamily V member 1, sequence (Q8NER1 whole entry): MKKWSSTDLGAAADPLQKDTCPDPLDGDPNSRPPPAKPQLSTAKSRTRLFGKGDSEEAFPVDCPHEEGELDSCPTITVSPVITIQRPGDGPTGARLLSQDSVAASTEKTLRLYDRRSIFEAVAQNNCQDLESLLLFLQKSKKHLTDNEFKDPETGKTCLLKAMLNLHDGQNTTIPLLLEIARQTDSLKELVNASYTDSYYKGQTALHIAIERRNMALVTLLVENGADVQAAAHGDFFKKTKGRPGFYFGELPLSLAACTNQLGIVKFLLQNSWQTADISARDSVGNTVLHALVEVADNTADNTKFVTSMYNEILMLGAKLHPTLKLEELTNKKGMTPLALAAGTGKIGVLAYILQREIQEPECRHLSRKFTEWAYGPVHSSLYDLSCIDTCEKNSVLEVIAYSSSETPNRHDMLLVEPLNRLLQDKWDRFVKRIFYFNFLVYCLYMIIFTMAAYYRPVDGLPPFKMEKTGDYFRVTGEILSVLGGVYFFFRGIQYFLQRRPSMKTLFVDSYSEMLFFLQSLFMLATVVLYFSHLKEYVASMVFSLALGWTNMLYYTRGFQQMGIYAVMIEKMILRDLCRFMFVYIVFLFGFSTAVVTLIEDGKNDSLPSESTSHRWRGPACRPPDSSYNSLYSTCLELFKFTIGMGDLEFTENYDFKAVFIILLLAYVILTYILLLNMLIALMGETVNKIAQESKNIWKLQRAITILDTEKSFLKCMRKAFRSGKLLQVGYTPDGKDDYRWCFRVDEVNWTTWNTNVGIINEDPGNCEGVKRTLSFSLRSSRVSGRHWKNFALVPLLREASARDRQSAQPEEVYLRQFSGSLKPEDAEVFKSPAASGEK
smiles,measurement,setting,value
C=C(C)[C@@H]1CCC(CO)=C[C@H]1c1c(O)cc(CCCCC)cc1O,Ki,Cannabinoid receptor 1 [1],> 1000 nM
same,Ki,Cannabinoid receptor 2 [2],> 1000 nM
C=C(C)[C@H]1CCC(C(=O)O)=C[C@@H]1c1c(O)cc(CCCCC)cc1O,Ki,Cannabinoid receptor 1 [3],13.2 nM
same,Ki,Cannabinoid receptor 2 [4],313 nM
same,Ratio Ki,[5],0.04
COc1cc(C(C)(C)CCCCCCN=C=S)cc(OC)c1[C@H]1C=C(CO)[C@H]2C[C@@H]1C2(C)C,Ki,Cannabinoid receptor 1 [3],2670 nM
same,Ki,Cannabinoid receptor 2 [4],13.1 nM
same,Ratio Ki,[5],203
C=C(C)[C@H]1CCC(CO)=C[C@@H]1c1c(O)cc(CCCCC)cc1O,Ki,Cannabinoid receptor 1 [1],5.3 nM
same,Ki,Cannabinoid receptor 2 [2],101 nM
same,Ratio Ki,[6],0.05
C=C(C)[C@H]1CCC(C(=O)O)=C[C@@H]1c1c(O)cc(C(C)(C)CCCCCC)cc1O,Ki,Cannabinoid receptor 1 [3],5.8 nM
same,Ki,Cannabinoid receptor 2 [4],155 nM
same,Ratio Ki,[5],0.03
C=C(C)[C@@H]1CCC(C)=C[C@H]1c1c(O)cc(CCC)cc1O [CANNABIDIVARIN],Ki,Cannabinoid receptor 1 [3],> 1000 nM
C=C(C)[C@@H]1CCC(C)=C[C@H]1c1c(O)cc(CCCCC)c(C(=O)OC)c1O,Ki,Cannabinoid receptor 1 [7],3.1 nM
same,Ki,Cannabinoid receptor 2 [8],0.8 nM
same,Ratio Ki,Homo sapiens,3.9
C=C(C)[C@H]1CCC(C)=C[C@@H]1c1c(O)cc(CCCCC)cc1O,EC50,[9],3.2 µM
same,IC50,[10],17 µM
same,IC50,[11],63.5 µM
C=C(C)[C@H]1CCC(C)=C[C@@H]1c1c(O)cc(CCCCC)c(C(=O)OCC(O)CCC)c1O (stereo partly specified),IC50,Cannabinoid receptor 1 [12],210 nM
same,EC50,Cannabinoid receptor 2 [13],90 nM
CCCCCCC(C)(C)c1cc(OC)c([C@H]2C=C(CO)[C@H]3C[C@@H]2C3(C)C)c(OC)c1,Ki,Cannabinoid receptor 1 [14],> 10 µM
C=C(C)[C@H]1CCC(C)=C[C@@H]1c1c(O)cc(CCC)c(C(=O)OC)c1O,Ki,Cannabinoid receptor 1 [7],345 nM
same,Ki,Cannabinoid receptor 2 [8],28 nM
same,Ratio Ki,Homo sapiens,12.3
C=C(C)C1CCC(C)=CC1O (stereo unspecified),Ki,Cannabinoid receptor 1 [7],> 1000 nM
same,Ki,Cannabinoid receptor 2 [8],375 nM
C=C(C)[C@@H]1CCC(C(=O)O)=C[C@H]1c1c(O)cc(CCCCC)cc1O,Ki,Cannabinoid receptor 1 [1],> 1000 nM
same,Ki,Cannabinoid receptor 2 [2],> 1000 nM
